# Source: ChEMBL document CHEMBL5647696, “Are all cyclin-dependent kinases 4/6 inhibitors created equal?” (NPJ Breast Cancer, 2019)
# What was measured:
# [1] = Time to reach peak level in human; format: ADME
# [2] = Volume of distribution in human; format: ADME
# [3] = Drug excretion in human feces; format: ADME, tissue-based; conditions: faeces, read-out: Drug excretion
# [4] = Elimination half life in human; format: ADME; conditions: read-out: beta t1/2 (converted)
# [5] = Drug excretion in human urine; format: ADME, tissue-based; conditions: read-out: Drug excretion
# [6] = Bioavailability in human; format: ADME, organism-based; conditions: in vivo
# [7] = Protein binding in human plasma; format: ADME, cell-free; conditions: read-out: PPB (converted)
Structure (SMILES),Tmax [1],Vd [2],dose excreted [3],half-life [4],dose excreted [5],bioavailability [6],fraction unbound [7]
CN(C)C(=O)c1cc2cnc(Nc3ccc(N4CCNCC4)cn3)nc2n1C1CCCC1 [RIBOCICLIB],1 h,1090 L,69%,30 h,23%,–,–
CCN1CCN(Cc2ccc(Nc3ncc(F)c(-c4cc(F)c5nc(C)n(C(C)C)c5c4)n3)nc2)CC1 [ABEMACICLIB],8 h,690 L,81%,–,3%,45%,0.07
CC(=O)c1c(C)c2cnc(Nc3ccc(N4CCNCC4)cn3)nc2n(C2CCCC2)c1=O [PALBOCICLIB],6 h,2580 L,–,29 h,–,–,–
